Experimental data taken from patent publication US20140193802A1, “IDENTIFICATION OF AN ALTERED THERAPEUTIC SUSCEPTIBILITY TO ANTI-HCMV COMPOUNDS AND OF A RESISTANCE AGAINST ANTI-HCMV COMPOUNDS” (priority 2012, published 2014).

Assays:
Assay in all cases: CPE-RA, letermovir-selected mutant
Format in all cases: cell-based, human cytomegalovirus (HCMV)
[1] = system: HCMV AD169 mutant rAIC246-10 (UL56 V236M); settings: for EC50: Human betaherpesvirus 5, AD169, rAIC246-10 (UL56 V236M), CPE reduction assay, mean ± SD
Protocol: (§1) HCMV Cytopathic Effect Reduction Assay (CPE-RA)
(§2) CPE-RAs were performed basically as described elsewhere (HCMV replication assay). In brief, the addition of 2 μl test compound of 50, 5, 0.5, 0.05, 0.005, and 0.0005 mM DMSO stock solutions to 100 μl cell culture medium in duplicate was followed by serial 2-fold dilutions in 96-well microtiter plates. Each well was supplemented with 150 μl of either a suspension of 1×10^4 NHDF cells mixed with cell-free HCMV (multiplicity of infection (MOI), 0.03) or a suspension of 1×10^4 to 3×10^4 HCMV-infected and uninfected NHDF cells (MOI, 0.001 to 0.002). Non-infected and non-treated cells served as controls on each plate. Final compound concentrations ranged between 250 and 0.00005 μM. Plates were incubated for 6 to 7 days at 37° C. or until the virus control reached 100% CPE. A mixture containing 20% Giemsa stain (Merck) and 5% formalin solution (Merck) was added to the wells for fixation and staining. After extensive washing, plates were dried at 56° C. followed by visual evaluation using an overhead microscope (plaque magnifier; Tecnorama Zürich). Each assay was performed at least in triplicate, and standard deviations were calculated. The assay plate data were used to calculate the EC50 (CPE-RA), i.e., the concentration of drug that inhibits the CPE by 50% compared with an untreated virus-infected control.
(§3) Drug-resistant HCMV AD169 mutants were selected by the single-step selection method or by serial passage of the virus in the presence of increasing concentration of Letermovir. Briefly, 5×10^3 AD169-infected NHDF cells/well (MOI, 0.03 PFU/cell) were seeded into the wells of 30 96-well microtiter plates. The infection was allowed to proceed under the exposure of 50 nM Letermovir (˜10×EC50) until a CPE developed in one or more of the compound-treated wells (indicative of resistant virus breakthrough). Non-infected and non-treated cells served as controls on each plate. Mutant virus amplification was accomplished after cultures achieved maximum CPE by the passage of cell-free supernatant virus in the presence of 50 nM Letermovir. The resultant Letermovir-resistant progeny virus mutants were plaque purified three times by limiting dilutions in the presence of Letermovir. The stability of resistance was tested by serially passaging plaque-purified viruses without selective pressure (8 to 10 times). The resistant phenotype of the mutants was confirmed by CPE reduction assays.

[2] = system: HCMV AD169 mutant rAIC246-4 (UL56 V231L); settings: for EC50: Human betaherpesvirus 5, AD169, rAIC246-4 (UL56 V231L), CPE reduction assay, mean ± SD
Protocol: as §1, §2, §3

[3] = system: HCMV AD169 mutant rAIC246-2 (UL56 R369S); settings: for EC50: Human betaherpesvirus 5, AD169, rAIC246-2 (UL56 R369S), CPE reduction assay, mean ± SD
Protocol: as §1, §2, §3

[4] = system: HCMV AD169 mutant rAIC246-8 (UL56 C325Y); settings: for EC50: Human betaherpesvirus 5, AD169, rAIC246-8 (UL56 C325Y), CPE reduction assay, mean ± SD
Protocol: as §1, §2, §3

[5] = system: HCMV AD169 mutant rAIC246-5 (UL56 R369M); settings: for EC50: Human betaherpesvirus 5, AD169, rAIC246-5 (UL56 R369M), CPE reduction assay, mean ± SD
Protocol: as §1, §2, §3

[6] = system: HCMV AD169 mutant rAIC246-6 (UL56 R369M); settings: for EC50: Human betaherpesvirus 5, AD169, rAIC246-6 (UL56 R369M), CPE reduction assay, mean ± SD
Protocol: as §1, §2, §3

[7] = system: HCMV AD169 mutant rAIC246-7 (UL56 L241P); settings: for EC50: Human betaherpesvirus 5, AD169, rAIC246-7 (UL56 L241P), CPE reduction assay, mean ± SD
Protocol: as §1, §2, §3

Structure (SMILES)	EC50 [1] [nM]	Resistance index (RI) = letermovir-EC50 mutant virus/letermovir-EC50 wild-type virus ([1]; rAIC246-10 vs AD169)	EC50 [2] [nM]	Resistance index (RI) = letermovir-EC50 mutant virus/letermovir-EC50 wild-type virus ([2]; rAIC246-4 vs AD169)	EC50 [3] [nM]	Resistance index (RI) = letermovir-EC50 mutant virus/letermovir-EC50 wild-type virus ([3]; rAIC246-2 vs AD169)	EC50 [4] [nM]	Resistance index (RI) = letermovir-EC50 mutant virus/letermovir-EC50 wild-type virus ([4]; rAIC246-8 vs AD169)	EC50 [5] [nM]	Resistance index (RI) = letermovir-EC50 mutant virus/letermovir-EC50 wild-type virus ([5]; rAIC246-5 vs AD169)	EC50 [6] [nM]	Resistance index (RI) = letermovir-EC50 mutant virus/letermovir-EC50 wild-type virus ([6]; rAIC246-6 vs AD169)	EC50 [7] [nM]	Resistance index (RI) = letermovir-EC50 mutant virus/letermovir-EC50 wild-type virus ([7]; rAIC246-7 vs AD169)
COc1cccc(N2CCN(C3=Nc4c(F)cccc4[C@H](CC(=O)O)N3c3cc(C(F)(F)F)ccc3OC)CC2)c1 [Letermovir, (S)-{8-fluoro-2-[4-(3-methoxyphenyl)-1-piperazinyl]-3-[2-methoxy-5-(trifluoromethyl)phenyl]-3,4-dihydro-4-quinazolinyl}acetic acid]	70 ± 20	13	130 ± 10	23	370 ± 70	66	25000 ± 5530	4428	110 ± 10	19	80 ± 20	14	920 ± 120	164
Nc1nc(O)c2ncn(COC(CO)CO)c2n1 [Ganciclovir]	1700 ± 300		4200 ± 1300		4000 ± 900		2200 ± 1200		5000 ± 400		2900 ± 900		2200 ± 600	
